Test results from patent US20250154169A1, “COMPOUNDS AND METHODS FOR MODULATING SPLICING” (REMIX THERAPEUTICS INC., priority 2021, published 2025).
pIC50: −log10 of the molar value. Read-outs that look alike come from different tables or passages of the source.

What was measured:
MYB mRNA = assay: Splicing RT-qPCR assay, MYB canonical (CJ) and alternative (AJ) junction mRNA; type: cell-based, human; conditions: Homo sapiens, A673 or K562 cells, 24 hours compound treatment, RT-qPCR; for AC50: read-out: MYB AJ (AC50, increase in alternative junction mRNA); for pIC50: read-out: MYB CJ (IC50, decrease in canonical junction mRNA)
Method in brief: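 Read-out is the abundance of canonical-junction versus new alternative-exon-junction mRNA, determined by real-time qPCR after cDNA synthesis and normalized to a housekeeping gene. It is measured in A673 or K562 cells exposed to compounds for 24 h, top dose 10 uM.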

K562 cells = assay: Cell Titer Glo 2.0 cell viability assay, K562; type: cell-based; conditions: Homo sapiens, 72 hours incubation
Procedure: Compounds described herein were screened for toxicity in K562 (human chronic myelogenous leukemia) and SH-SY5Y (human neuroblastoma) cells using a Cell Titer Glo 2.0 assay.
• Promega CellTiter-Glo® 2.0 Cell Viability Assay (cat #G9241) • Corning 384-well TC-treated microplates (cat #3570)
Cells were plated at 500 cells/well (K562 cells) in 45 μL of IMDM supplemented with 10% FBS in a 384-well opaque plate. Wells containing only medium were used as a blank control. Test compounds (e.g., compounds of Formula (I) or (II)) were first serially diluted in DMSO then diluted 1:100 with EIDM+10% FBS. The final concentration of DMSO was 0.1% in each well. The cells were incubated for 72 hours at 37° C. and 5% CO2 before assaying with Cell Titer Glo 2.0 reagent.

Target C = assay: Protein abundance, HiBit-assay system (Promega), Target C; type: cell-based, human; conditions: Table 6; HiBiT-modified K562 cells, 24 hours
Procedure: Compounds described herein were used to screen for effects on quantitative protein abundance using a HiBit assay system (Promega). Quantitative protein abundance was determined by measuring the protein levels of HiBit-tagged protein targets expressed in cell culture via luminescence using the Nano-Glo HiBiT Lytic Detection System, which uses a split complementation assay format to reconstitute NanoBiT enzyme to generate a luminescent signal. A protein abundance assay was developed such that endogenous protein targets could be modified with the HiBiT peptide tag and their abundance could be assessed after compound treatment. Briefly, K562 cell lines containing a HiBiT-modification were treated with various compounds described herein (e.g., compounds of Formulas (I) or (II)). After treatment for 24 hours, the protein abundance of a specific target was determined by measuring luminescence.
Cells were maintained in EIDM with 10% FBS. Before the assay, cells were diluted with […] growth media (EIDM+1% FBS media) and were seeded in a 384-well plate at a density of 10000 cells/well (for each cell line listed in Table 5). Each compound was prepared as a 10-point 3-fold serial dilution in DMSO with the top dose at a final concentration of 10 μM in the well. Unmodified K562 cells were added at the previously specified density with DMSO to serve as an assay baseline and positive control (PC) and DMSO only with the respective modified cell lines was added to the negative control (NC) columns. Final DMSO concentration was kept at or below 0.25%. Treated cell plates were placed in an incubator at 37° C. with 5% CO2 for 24 hours. After 24 hours, 25 μL of Complete HiBit Lytic reagent was added to each well at room temperature (e.g. one plate requiring 10 mL Lytic Buffer, 100 μL LgBiT Protein, 200 μL Lytic Substrate), shaken for 5 minutes at 600 RPM, then left to sit for 10 minutes for signal to stabilize before reading on a Spark Cyto plate reader (Tecan) with a 500 ms measurement time.
To determine compound effects on protein abundance of each target in Table 6, the percent response for each respective cell line was calculated at each compound concentration as follows:
For the normalized response at each concentration, a four-parameter logistical regression was fit to the data and the response was interpolated at the 50% value to determine a concentration for protein abundance at […] the untreated control.

Row | Structure (SMILES) | AC50 (MYB mRNA) [nM] | pIC50 (MYB mRNA) | GI50 (K562 cells) [nM] | pIC50 (Target C) | AC50 (MYB mRNA; 24 h) [nM] | pIC50 (MYB mRNA; 24 h)
1 | Cc1cn2cc(NC(=O)c3ccc(N4CC5NC5C4)c4cn(C)nc34)cc(F)c2n1 (stereo not shown) [Compound 563, 4-{3,6-diazabicyclo[3.1.0]hexan-3-yl}-N-{8-fluoro-2-methylimidazo[1,2-a]pyridin-6-yl}-2-methylindazole-7-carboxamide] | < 100 | > 7.00 | 100 to 1000 | 6.00 to 7.00 | – | –
2 | Cc1cn2cc(NC(=O)c3ccc(N4C5CNCC54)c4cn(C)nc34)cc(F)c2n1 (stereo not shown) [Compound 564, 4-{3,6-diazabicyclo[3.1.0]hexan-6-yl}-N-{8-fluoro-2-methylimidazo[1,2-a]pyridin-6-yl}-2-methylindazole-7-carboxamide] | < 100 | > 7.00 | 100 to 1000 | 6.00 to 7.00 | – | –
3 | CCn1cc2c(N3CCNCC3)ccc(C(=O)Nc3cc(F)c4nc(C)c(F)n4c3)c2n1 [Compound 565, N-{3,8-difluoro-2-methylimidazo[1,2-a]pyridin-6-yl}-2-ethyl-4-(piperazin-1-yl) indazole-7-carboxamide; trifluoroacetic acid] | – | – | 1000 to 10000 | < 5.00 | > 10000 | < 5.00
4 | CCn1cc2c(N3CCNCC3)ccc(C(=O)Nc3cn4cc(C)nc4c(Oc4ccccc4)n3)c2n1 [Compound 566, 2-ethyl-N-{2-methyl-8-phenoxyimidazo[1,2-a]pyrazin-6-yl}-4-(piperazin-1-yl) indazole-7-carboxamide] | – | – | 100 to 1000 | 5.00 to 6.00 | 100 to 1000 | 6.00 to 7.00
5 | Cc1cn2cc(NC(=O)c3ccc(N4CC[C@@H](NC56CC(C5)C6)C4)c4cn(C)nc34)cc(F)c2n1 [Compound 568, 4-[(3R)-3-{bicyclo[1.1.1]pentan-1-ylamino}pyrrolidin-1-yl]-N-{8-fluoro-2-methylimidazo[1,2-a]pyridin-6-yl}-2-methylindazole-7-carboxamide] | – | – | 100 to 1000 | 5.00 to 6.00 | 1000 to 10000 | 5.00 to 6.00
6 | CCn1cc2c(N3CCC(NC4CC4)C3)cc(F)c(C(=O)Nc3cc(F)c4nc(C)cn4c3)c2n1 (stereo not shown) [Compound 569, 4-[3-(cyclopropylamino)pyrrolidin-1-yl]-2-ethyl-6-fluoro-N-{8-fluoro-2-methylimidazo[1,2-a]pyridin-6-yl}indazole-7-carboxamide] | – | – | 100 to 1000 | 5.00 to 6.00 | < 100 | > 7.00
7 | Cc1cn2cc(NC(=O)c3c(F)cc(N4CC[C@@H](NC5CC5)C4)c4cn(C)nc34)cc(F)c2n1 [Compound 571, 4-[(3R)-3-(cyclopropylamino)pyrrolidin-1-yl]-6-fluoro-N-{8-fluoro-2-methylimidazo[1,2-a]pyridin-6-yl}-2-methylindazole-7-carboxamide] | – | – | 100 to 1000 | 5.00 to 6.00 | < 100 | > 7.00
8 | Cc1cn2cc(NC(=O)c3ccc(N4CC[C@@H](NCc5cnc(Cl)nc5)C4)c4cn(C)nc34)cc(F)c2n1 [Compound 573, 4-[(3R)-3-{[(2-chloropyrimidin-5-yl)methyl]amino}pyrrolidin-1-yl]-N-{8-fluoro-2-methylimidazo[1,2-a]pyridin-6-yl}-2-methylindazole-7-carboxamide] | – | – | 1000 to 10000 | < 5.00 | 100 to 1000 | 6.00 to 7.00
9 | Cc1cn2cc(NC(=O)c3ccc(N4CCC(C)(NC(C)C)C4)c4cn(C)nc34)cc(F)c2n1 (stereo not shown) [Compound 574] | – | – | 100 to 1000 | < 5.00 | 100 to 1000 | 6.00 to 7.00
10 | CCn1cc2c(N3CCNCC3)ccc(C(=O)Nc3cc(F)c4ncccc4c3)c2n1 [Compound 575] | – | – | 100 to 1000 | < 5.00 | > 10000 | < 5.00
